From US4868183A, “N-pyrazinyl substituted P-aminophenols” (Otsuka Pharmaceutical Factory, Inc., priority 1986, dated 1989)

Test system: carrageenin-induced paw edema
Assay: Anti-inflammatory activity: inhibition of carrageenin-induced paw edema in rats
Format: in vivo, rat (male, S.D. strain)
Conditions: Rattus norvegicus, po, read-out: Inhibition percent of edema; for inhibition in vivo at 50 mg/kg: 50 mg/kg p.o.; for inhibition in vivo at 100 mg/kg: 100 mg/kg p.o.; for inhibition in vivo at 25 mg/kg: 25 mg/kg p.o.
Procedure: (1) Anti-inflammatory activity: inhibition of carrageenin-induced paw edema in rats The compound was tested for the above activity according to the method of C.A. Winter et al. [Proc. Soc. […] One hour after the test compound was orally given to the animal, 0.1 ml of 1% carrageenin solution was subcutaneously injected into the right footpad. The paw volume was measured 3 hours thereafter, and the resulting increase in the volume was calculated based on the volume before the injection of carrageenin solution. The percent inhibition was determined in comparison with the increase in the control group.

[1] = 1 h before carrageenin, paw volume 3 h after, vs control

CC(C)(C)c1cc(Nc2cnccn2)cc(C(C)(C)C)c1O [Compound 1, 2,6-di-tert-butyl-4-pyrazinylaminophenol]
inhibition in vivo at 50 mg/kg [1]: 37%

CC(C)c1cc(Nc2cnccn2)cc(C(C)(C)C)c1O [Compound 4, 2-isopropyl-6-tert-butyl-4-pyrazinylaminophenol]
inhibition in vivo at 100 mg/kg [1]: 39%

CC(C)c1cc(Nc2cccnn2)cc(C(C)(C)C)c1O [Compound 10]
inhibition in vivo at 25 mg/kg [1]: 35%

CC(C)(C)c1cc(Nc2cccnn2)cc(C(C)(C)C)c1O [Compound 11, 2,6-di-tert-butyl-4-[(3-pyridazinyl)amino]phenol]
inhibition in vivo at 100 mg/kg [1]: 62%

CC(C)(C)c1cc(Nc2ccnnc2)cc(C(C)(C)C)c1O [Compound 12, 2,6-di-tert-butyl-4-[(4-pyridazinyl)amino]phenol]
inhibition in vivo at 25 mg/kg [1]: 29%

CC(C)(C)c1cc(Nc2ncccn2)cc(C(C)(C)C)c1O [Compound 13, 2,6-di-tert-butyl-4-[(2-pyrimidinyl)amino]phenol]
inhibition in vivo at 10 mg/kg (10 mg/kg p.o., 1 h before carrageenin, paw volume 3 h after, vs control): 41%

CC(C)(C)c1cc(Nc2ccncn2)cc(C(C)(C)C)c1O [Compound 14, 2,6-di-tert-butyl-4-[(4-pyrimidinyl)amino]phenol]
inhibition in vivo at 50 mg/kg [1]: 30%

CC(C)(C)c1cc(Nc2cncnc2)cc(C(C)(C)C)c1O [Compound 15]
inhibition in vivo at 100 mg/kg [1]: 16%

Cc1cnc(Nc2cc(C(C)(C)C)c(O)c(C(C)(C)C)c2)cn1 [Compound 16]
inhibition in vivo at 100 mg/kg [1]: 10%

Cc1ccc(Nc2cc(C(C)(C)C)c(O)c(C(C)(C)C)c2)nn1 [Compound 17, 2,6-di-tert-butyl-4-[(6-methyl-3-pyridazinyl)amino]phenol]
inhibition in vivo at 25 mg/kg [1]: 36%

Cc1ccnc(Nc2cc(C(C)(C)C)c(O)c(C(C)(C)C)c2)n1 [Compound 18, 2,6-di-tert-butyl-4-[(4-methyl-2-pyrimidinyl)amino]phenol]
inhibition in vivo at 50 mg/kg [1]: 36%

CC(C)(C)c1cc(Nc2cncnc2N)cc(C(C)(C)C)c1O [Compound 22, 2,6-di-tert-butyl-4-[(4-amino-5-pyrimidinyl)amino]phenol]
inhibition in vivo at 100 mg/kg [1]: 32%

COc1ccc(Nc2cc(C(C)(C)C)c(O)c(C(C)(C)C)c2)nn1 [Compound 24, 2,6-di-tert-butyl-4-[(6-methoxy-3-pyridazinyl)amino]phenol]
inhibition in vivo at 25 mg/kg [1]: 31%

CC(C)(C)c1cc(Nc2cncc(Cl)n2)cc(C(C)(C)C)c1O [Compound 25]
inhibition in vivo at 100 mg/kg [1]: 15%

CC(C)(C)c1cc(Nc2ccc(Cl)nn2)cc(C(C)(C)C)c1O [Compound 26, 2,6-di-tert-butyl-4-[(6-chloro-3-pyridazinyl)amino]phenol]
inhibition in vivo at 100 mg/kg [1]: 27%

CC(C)(C)c1cc(Nc2cc(Cl)nnc2Cl)cc(C(C)(C)C)c1O [Compound 27, 2,6-di-tert-butyl-4-[(3,6-dichloro-4-pyridazinyl)amino]pheonl]
inhibition in vivo at 100 mg/kg [1]: 33%

CCOc1ccc(Nc2cc(C(C)(C)C)c(O)c(C(C)(C)C)c2)nn1 [Compound 28, 2,6-di-tert-butyl-4-[(6-ethoxy-3-pyridazinyl)amino]phenol]
inhibition in vivo at 100 mg/kg [1]: 33%

CC(C)(C)c1cc(Nc2ccc(CO)nn2)cc(C(C)(C)C)c1O [Compound 33, 2,6-di-tert-butyl-4-[(6-hydroxymethyl-3-pyridazinyl)amino]phenol]
inhibition in vivo at 100 mg/kg [1]: 46%

CC(C)(C)c1cc(Nc2cc[nH]n2)cc(C(C)(C)C)c1O [Compound 34, 2,6-di-tert-butyl-4-(3-pyrazolylamino)phenol]
inhibition in vivo at 100 mg/kg [1]: 65%

Cn1nccc1Nc1cc(C(C)(C)C)c(O)c(C(C)(C)C)c1 [Compound 39, 2,6-di-tert-butyl-4-[(2-methyl-3-pyrazolyl)amino]phenol]
inhibition in vivo at 100 mg/kg [1]: 46%

CC(C)(C)c1cc(Nc2ncc[nH]2)cc(C(C)(C)C)c1O [Compound 48]
inhibition in vivo at 25 mg/kg [1]: 63%

CC(C)(C)c1cc(Nc2ncco2)cc(C(C)(C)C)c1O [Compound 49, 2,6-di-tert-butyl-4-[(2-oxazolyl)amino]phenol]
inhibition in vivo at 100 mg/kg [1]: 41%

Cc1cc(Nc2cc(C(C)(C)C)c(O)c(C(C)(C)C)c2)no1 [Compound 50]
inhibition in vivo at 50 mg/kg [1]: 12%

CC(C)(C)c1cc(Nc2c[nH]nn2)cc(C(C)(C)C)c1O [Compound 51, 2,6-di-tert-butyl-4-[(1,2,3-triazol-4-yl)amino]phenol]
inhibition in vivo at 100 mg/kg [1]: 42%

CC(C)(C)c1cc(Nc2nnc[nH]2)cc(C(C)(C)C)c1O [Compound 54]
inhibition in vivo at 100 mg/kg [1]: 20%

CC(C)(C)c1cc(Nn2cnnc2)cc(C(C)(C)C)c1O [Compound 55, 2,6-di-tert-butyl-4-[(1,2,4-triazol-4-yl)amino]phenol]
inhibition in vivo at 100 mg/kg [1]: 23%

CC(C)(C)c1cc(Nc2nc(-c3ccccc3)ns2)cc(C(C)(C)C)c1O [Compound 56, 2,6-di-tert-butyl-4-[(3-phenyl-1,2,4-thiadiazol-5-yl)amino]phenol]
inhibition in vivo at 100 mg/kg [1]: 13%

Cc1nnc(Nc2cc(C(C)(C)C)c(O)c(C(C)(C)C)c2)s1 [Compound 58, 2,6-di-tert-butyl-4-[(5-methyl-1,3,4-thiadiazol-2-yl)amino]pheonl]
inhibition in vivo at 100 mg/kg [1]: 30%

CC(C)(C)c1cc(Nc2nccnn2)cc(C(C)(C)C)c1O [Compound 59, 2,6-di-tert-butyl-4-[(1,2,4-triazin-3-yl)amino]phenol]
inhibition in vivo at 50 mg/kg [1]: 37%

Cc1sccc1Nc1cc(C(C)(C)C)c(O)c(C(C)(C)C)c1 [Compound 61, 2,6-di-tert-butyl-4-[(2-methyl-3-thienyl)amino]phenol]
inhibition in vivo at 50 mg/kg [1]: 25%

CC(C)(C)c1cc(Nc2cncc[n+]2[O-])cc(C(C)(C)C)c1O [Compound 64, 2-N-(3,5-di-tert-butyl-4-hydroxyphenyl)aminopyrazine-1-oxide]
inhibition in vivo at 25 mg/kg [1]: 31%

COc1ccc2c(c1)c(CC(=O)O)c(C)n2C(=O)c1ccc(Cl)cc1 [Indomethacin, reference compound]
inhibition in vivo at 5 mg/kg (3 h): 36%
